Read-outs that look alike come from different tables or passages of the source.
How the values were obtained:
[1] = Heparin affinity column elution with NaCl gradient; format: binding
Description: Conditioned media are thawed, pooled, salt concentration adjusted to 0.4 M NaCl and then applied on an heparin immobilized column (Hitrap Heparin 5 ml or Heparin-sepharose CL6B 50 ml, GE Biological) equilibrated with 10 mM Tris, or with 20 mM phosphate buffer, 0.4 M NaCl and 0.1 mM EDTA, pH 7.4. The bound proteins are eluted in the same buffer with a gradient from 0.4 M to 2 M NaCl. The fractions eluted from 0.8 M NaCl and more contained only wild type antithrombin or mutated antithrombins with high heparin affinity. […] The collected fractions are pooled and the salt concentration is decreased either by over night dialysis against 10 mM Tris, or 20 mM phosphate, and 0.1 M NaCl, pH 7.4 at 4° C. or applied on an HiPrep 26/10 desalting column equilibrated with 10 mM Tris, or 20 mM phosphate, and 0.1 M NaCl, pH 7.4. The antithrombin is then concentrated by ion exchange chromatography using a “Resource Q” 1 ml column (GE, Biological) equilibrated with 10 mM Tris, or 20 mM phosphate, and 0.1 M NaCl, pH 7.4 and eluted in the same buffer with a NaCl gradient from […] to 0.5 M or 20 mM to 0.5 M. The antithrombin concentration in each elution fraction is estimated by absorbance at 280 nm with an absorption coefficient ε=0.65 g^−1·l·cm^−1 and the integrity of purified wild type antithrombin or mutated antithrombins is tested by western blotting using the same couple of antibodies as described before, and electrophoresis on 10% acrylamide/bisacrylamide gel in native and denaturing conditions followed by coomassie brilliant blue R-250 staining (FIG. 4). Then, the antithrombin preparation is aliquoted and stored at −80° C. before use for functional assay. The same procedure is used to purify plasma antithrombin (used as internal reference) from human plasma.

[2] = patients, curative pentasaccharide treatment; cited from earlier work
[3] = Fondaparinux overdose and pharmacokinetics in mice; format: in vivo; settings: mouse
Description: 1—Determination of the Doses of Fondaparinux Inducing an Overdose in Mice Published data concerning fondaparinux pharmacokinetics in rats (Herbert J 4197), or experimental determination of fondaparinux pharmacokinetics in mice are used to develop the model.
To induce an overdose, a 3 fold doses (300 nmol/kg, or 0.52 mg/kg) is tested. At this dose, the fondaparinux plasma concentration is about 3.5 to 4 nmol/ml (or 6 to 7 mg/L). An anti-Xa activity is determined to ensure that an overdose is obtained.
Anti FXa activity measurements is performed as previously described using a Stachrom Heparin® kit on a STA (Stago, France) or a Rotachrom Heparin® kit with procedure adapted for measurement in microplate reader (Dynatech MR 5000). A calibration curve with pentasaccharide is performed, allowing the expression of the results in nmol/ml (or in mg/L) of plasma.
In mouse, an overdose of fondaparinux is observed at 300 nmol/kg (or 0.52 mg/kg) but maximal concentration in plasma is observed less than 15 min after sub-cutaneous injection.

[4] = rats, cited from earlier work

Row | Compound | elution from heparin affinity column compared with wild type antithrombin [1] | minimal equilibrium concentration in plasma [2] | optimal equilibrium concentration in plasma [2] | dose at which an overdose is observed [3] | Tmax ([4]; intra-venous injection of 100 nmol/kg (or 0.17 mg/kg)) | Tmax ([4]; subcutaneous injection of 100 nmol/kg (or 0.17 mg/kg))
1 | AT-N135Q: human antithrombin with substitution of the amino acid at position 135 by Glutamine | higher ionic strength than wild type antithrombin | – | – | – | – | –
2 | CO[C@H]1O[C@H](COS(=O)(=O)O)[C@@H](O[C@@H]2O[C@@H](C(=O)O)[C@@H](O[C@H]3O[C@H](COS(=O)(=O)O)[C@@H](O[C@@H]4O[C@H](C(=O)O)[C@@H](O[C@H]5O[C@H](COS(=O)(=O)O)[C@@H](O)[C@H](O)[C@H]5NS(=O)(=O)O)[C@H](O)[C@H]4O)[C@H](OS(=O)(=O)O)[C@H]3NS(=O)(=O)O)[C@H](O)[C@H]2OS(=O)(=O)O)[C@H](O)[C@H]1NS(=O)(=O)O [fondaparinux] | – | 0.46 to 0.62 mg/L | 1.20 to 1.26 mg/L | 0.52 mg/kg | 5 min | 30 min

From patent US8741844B2, “Use of mutated antithrombins for treating or preventing coagulation disorders” (Universite Paris-Sud XI, priority 2007, dated 2014)
